No end group written: not given here.
Key:
[1] = system: Fusobacterium nucleatum (ATCC 25586); assay type: cell-based; settings: ATCC 25586, 48 h
Experimental: (§1) Streptococcus gordonii (ATCC 10558) is a facultative anaerobic bacterium, Fusobacterium nucleatum (ATCC 25586) and Porphyromonas gingivalis (BNCC 353909) are obligate anaerobic bacteria. The effectiveness of VR-12 in suppressing bacterial proliferation was assessed using the standard broth dilution method ([Tang et al., 2022]). Various concentrations of VR-12 (1,000–7.8 μg/mL, serial two-fold dilution) were mixed with liquid medium broth containing bacteria (1 × 10^6 CFU/mL) at a ratio of 1:1, with an overall volume of 200 µL. A blank control was established using a 200 µL PBS solution, whereas a negative control was prepared by combining 100 µL PBS solution with 100 µL of bacterial culture (1 × 10^6 CFU/mL). The bacterial cultures were incubated in liquid medium for 24/48 h at 37°C, with daily observation of the bacterial sediment accumulation at the base of the well. MIC refers to the minimal concentration of peptide that induces a clear liquid and no visible bacterial growth in the well. The bacterial suspension in the well with a concentration greater than the MIC was pipetted evenly and 10 µL of the liquid was extracted from the well and transferred to agar plates and incubated for 24/48 h for MBC determination.

[2] = system: Porphyromonas gingivalis (BNCC 353909); assay type: cell-based; settings: 48 h
Experimental: as §1

[3] = system: Streptococcus gordonii (ATCC 10558); assay type: cell-based; settings: ATCC 10558, 48 h
Experimental: as §1

RAW264.7 cells [4] = assay: Cell proliferation, CCK-8 assay; assay type: cell-based, murine; settings: RAW264.7, 125 μg/mL, CCK-8, OD450
Experimental: RAW264.7 cells (murine macrophage cell line, ATCC, Manassas, VA, United States) and HGFs (ATCC, Manassas, VA, United States) were cultured (37°C, sterile atmosphere of 5% CO2) in DMEM (Gibco, United States) containing 10% (v/v) fetal bovine serum (FBS, Solarbio Co., Ltd., Beijing, China) and 1% penicillin/streptomycin (Gibco, Carlsbad, CA).
We assessed cell growth using the Cell Counting Kit-8 (CCK-8) assay ([Chen et al., 2022]). Cells (1,000 cells/well) were seeded in a 96-well plate. After 24 h, the cells were treated with VR-12 (7.81–125 μg/mL, serial two-fold dilution) for 1, 3, 5, and 7 days. The wells without VR-12 were used as blank controls. Cells were incubated using the CCK-8 kit (New Cell&Molecular Biotech Co., Ltd., Suzhou, China), and the absorbance was measured at OD450.

RAW264.7 cells [5] = assay: Live/dead assay (calcein AM/PI); assay type: cell-based, murine; settings: RAW264.7, 62.5 μg/mL, 24 h, vs untreated cells
Experimental: (§2) A total of 5 × 10^4 cells per well were inoculated into 24-well plates. After 24 h, the cells were exposed to two different types of culture medium: regular medium and medium supplemented with VR-12 (62.5 μg/mL). Following a 24-hour incubation period, the cells were incubated with 200 µL of fresh medium containing calcein AM solution and propidium iodide (PI; Beyotime, Shanghai, China) solution, protected from light for 20 min at room temperature. The observations were conducted using inverted fluorescence microscopy (IX71, Olympus, Japan) and images were captured for documentation purposes.

HGFs = assay: Live/dead assay (calcein AM/PI); assay type: cell-based, human; settings: 62.5 μg/mL, 24 h, vs untreated cells
Experimental: as §2

rat red blood cells = settings: 125 μg/mL (maximum concentration examined), rat erythrocytes 5% (v/v) suspension, 37°C, 1.5 h, OD540, 1% Triton X-100 positive control
Experimental: Initially, the cells underwent three washing cycles with PBS, followed by centrifugation at 1,000 rpm for 10 min at ambient temperature. After removing the supernatant, a suspension of cells at a concentration of 5% (v/v) was prepared using 0.9% NaCl solution (w/v). Subsequently, 100 μL of peptides at varying concentrations (7.81–125 μg/mL, serial two-fold dilution) were combined with 100 μL of the red blood cell suspensions. The mixture underwent incubation at 37°C for a duration of 1.5 h, after which it was subjected to centrifugation at 1,000 rpm for 5 min, and measurement of absorbance at OD540.1% Triton X-100 and NaCl (0.9%) were used as positive and negative controls, respectively. The hemolysis rate (HR) was determined by employing this formula: HR%=ODt−ODn/ODp−ODn×100% where ODp, ODn and ODt were the absorbance values of the positive control group, the negative control group and the test group, respectively.

VRLWVRVRRWRR-NH2 [VR-12]
MBC [1]: 125 µg/mL | MIC [1]: 62.5 µg/mL | MBC [2]: 125 µg/mL | MIC [2]: 62.5 µg/mL | MBC [3]: 62.5 µg/mL | MIC [3]: 31.25 µg/mL | Inhibition rate (RAW264.7 cells [4]): approximately 50% | Cell viability by live/dead staining (RAW264.7 cells [5]): no significant difference in cell viability | Cell viability by live/dead staining (HGFs): no significant difference in cell viability | α-helix + β-sheet proportion: 31.5% | Hemolysis rate (rat red blood cells): 3.27%

— article PMC11747041, “Study of an arginine- and tryptophan-rich antimicrobial peptide in peri-implantitis” (Frontiers in Bioengineering and Biotechnology, 2025)
